Test results as given in patent US7084166B2, “Bis-heterocyclic compounds with antitumour and chemosensitising activity” (Sigma-Tau Industrie Farmaceutichee Riunite S.p.A., priority 2000, dated 2006).
Values joined by “and” are separate entries in the source; they are usually repeats but may differ in a detail not shown here. Equal values may be shown once. Read-outs that look alike come from different tables or passages of the source.

Columns and labels:
Type in all cases: cell-based
[1] = test system: MCF-7-Dx (human mammary carcinoma); assay: Cytotoxicity test on resistant tumour cell lines, tested compound alone; settings: 24 h incubation, survival after 48 h, ± SD
Experimental: (§1) This test was used to evaluate the survival of human cell lines resistant to doxorubicin (about 100 times) and cross-resistant to daunorubicin, actinomycin D, mitoxantrone, vincristine, vinblastin, taxol, colchicine, and etoposide.
(§2) The following cell lines were used: MCF-7-Dx (human mammary carcinoma), LoVo-Dx (human colon adenocarcinoma), MES-SA Dx (human uterine sarcoma).
(§3) Before using the association doxorubicin-tested compound, the cytotoxicity of the cells was evaluated with the tested compound (alone) as follows: the cells were incubated with the compound, at scalar concentrations (500 μM÷0.97 μM), for 24 hours; the compound was then removed and cell survival was evaluated after 48 hours with the above-mentioned sulforodamine B test. The antiproliferative activity of the compounds was evaluated in terms of IC50 (concentration of the compound that inhibits 50% of cell survival) processed with the above-mentioned curve-fitting program.

[2] = test system: MES-SA Dx (human uterine sarcoma); assay: as above; settings: 24 h incubation, survival after 48 h, ± SD
Experimental: as §1, §2, §3

[3] = test system: LoVo-Dx (human colon adenocarcinoma); assay: as above; settings: 24 h incubation, survival after 48 h, ± SD
Experimental: as §1, §2, §3

[4] = test system: LoVo (human colon adenocarcinoma); assay: Cytotoxicity test on sensitive tumour cell lines (sulforodamine B test); settings: 24 h incubation, survival after 48 h, ± S.D., read-out: antiproliferative activity IC50, Lovo
Experimental: (§4) This test was used to evaluate the survival of the human cell lines MCF-7 (human mammary carcinoma), LoVo (human colon adenocarcinoma), and MES-SA (human uterine sarcoma). The tumour cells were incubated with the compound, at scalar concentrations, (500 μM÷0.97 μM) for 24 hours; the compound was then removed and cell survival was evaluated after 48 hours using the sulforodamine B test (J. Natl. Cancer Inst. 82, 1107–1112). The antiproliferative activity of the compounds was evaluated in terms of the IC50 (concentration of the molecule that inhibits 50% of cell survival) processed with a curve-fitting program (Am. J. Physiol. 1978., 235, E97–E102) and expressed as μM±S.D.

[5] = test system: MCF-7 (human mammary carcinoma); assay: as above; settings: 24 h incubation, survival after 48 h, ± S.D., read-out: antiproliferative activity IC50, MCF-7
Experimental: as §4

[6] = test system: MES-SA (human uterine sarcoma); assay: as above; settings: 24 h incubation, survival after 48 h, ± S.D., read-out: antiproliferative activity IC50, Mes-Sa
Experimental: as §4

[7] = test system: HL60 cells (acute promyelocytic leukaemia); assay: Flow cytofluorimetric analysis of cell cycle; settings: ATRA 0.5 μM alone, day 3
Experimental: The second line used was the HL60 cell line which responds to ATRA (but is less sensitive than the NB4 cell line).
The HL60 and NB4 cells were seeded at a density of 150,000 cells/ml in RPMI 1640 medium containing 10% foetal calf serum, and were treated with the tested compounds in the presence and absence of suboptimal doses of ATRA (5–10 nM for NB4 and 0.5 μM for HL60, respectively) in the dark, and returned to the incubator for 3 days without ever replacing the culture medium.
(§5) To assess the effect of the tested compounds on the various phases of the cell cycle, on the third day of treatment 500,000 cells were harvested, centrifuged at 1,000 rpm for 10 minutes, washed twice in PBS w/o (PBS without calcium and magnesium) and fixed in a solution of 50% PBS w/o+50% methanol/acetone (1:4 v/v) for at least 1 hour; the cells were then centrifuged as described, washed in PBS w/o and centrifuged again.
(§6) 200 μl of propidium iodide 100 μg/ml and 200 μl of RNase 150 kU/mg were then added to the cell pellet.
(§7) After a 30-min incubation in the dark at room temperature, the samples were analysed by flow cytofluirometry.

[8] = test system: NB4 cells (acute promyelocytic leukaemia); assay: Flow cytofluorimetric analysis of cell cycle; design: APOPTOSIS: unit not given here; settings: ATRA 0.01 μM alone, day 3
Experimental: The first line used was the NB4 cell line, bearing the t(15;17) chromosomal translocation which generates the fusion protein PML/RARα.
as §5, §6, §7

Row | Structure (SMILES) | IC50 [1] [µM] | IC50 [3] [µM] | IC50 [4] [µM] | IC50 [5] [µM] | IC50 ([2]; Homo sapiens, MES-SA Dx) [µM] | IC50 ([3]; Homo sapiens, LoVo/DX) [µM] | IC50 ([1]; Homo sapiens, MCF7/DX) [µM] | IC50 ([4]; Homo sapiens, LoVo) [µM] | IC50 ([5]; Homo sapiens, MCF7) [µM] | also measured
1 | FCCCCC(c1c[nH]c2ccccc12)c1c[nH]c2ccccc12 [ST 1382, 1,1-(diindol-3-yl)-5-fluoro-pentane] | 40.2 ± 3 | 34.3 ± 6.9 | 33.5 ± 3.7 | 28.5 ± 6 |  |  |  |  |  | IC50 [2]: 12.5 ± 0.3 µM; IC50 [6]: 40.2 ± 4.1 µM
2 | OCCCC(c1cc2cc3c(cc2[nH]1)OCO3)c1c[nH]c2cc3c(cc12)OCO3 (racemic) [ST 1731, (R,S)-4-hydroxy-1,1-di-(5,6-methylenedioxy-indol-2-yl, 5,6-methylenedioxy-indol-3-Yl)-butane] |  |  | 23.9 ± 0.7 | 30.1 ± 4 |  |  |  |  |  | 
3 | CCC=C(c1cn(Cc2ccccc2)c2ccccc12)c1cn(Cc2ccccc2)c2ccccc12 [ST 1492, 1,1-di-(N-benzyl-indol-3-yl)-1-butene] |  |  |  |  | 178 ± 41 | > 350 |  |  |  | 
4 | CCCC(c1c[nH]c2ccc([N+](=O)[O-])cc12)c1c[nH]c2ccc([N+](=O)[O-])cc12 [ST 1429, 1,1-di-(5 nitroindol-3-yl)-butane] |  |  |  |  | 15.3 ± 0.4 | 10.2 ± 0.5 | 12.9 ± 0.7 | 23.6 ± 0.5 | 10.4 ± 0.3 | IC50 ([6]; Homo sapiens, MES-SA): 15 ± 2.5 µM
5 | CCCC(c1c[nH]c2ccc(N)cc12)c1c[nH]c2ccc(N)cc12 [ST 1437, 1,1-di-(5-amino-indol-3-yl)-butane. 2HCl] |  | 8 ± 0.6 | 16.7 ± 3.4 | 8.3 ± 1.2 |  |  |  |  |  | IC50 [2]: 12.2 ± 0.8 µM; IC50 [6]: 4.4 ± 0.06 µM
6 | CCCC(c1c[nH]c2ccc(O)cc12)c1c[nH]c2ccc(O)cc12 [ST 1393, 1,1-di-(5-hydroxyindol-3-yl)-butane] |  |  |  |  | 7.5 ± 0.3 | 2.7 ± 0.4 | 9.2 ± 0.4 | 3 ± 0.5 | 5.9 ± 0.8 | IC50 ([6]; Homo sapiens, MES-SA): 5.7 ± 0.1 µM
7 | O=C(c1cn(Cc2ccccc2)c2ccccc12)c1cn(Cc2ccccc2)c2ccccc12 [ST 1473, di-(N-benzyl-indol-3-yl)-oxomethane] |  |  |  |  | > 500 | 8.6 ± 2.9 | > 500 |  |  | 
8 | CC1=C(/C=C/C(C)=C/C=C/C(C)=C/C(=O)O)C(C)(C)CCC1 [ATRA, all-trans retinoic acid, reference compound] |  |  |  |  |  |  |  |  |  | G0/G1 [7]: 63.3 and 63.4; G2/M [7]: 11.0; S [7]: 25.7 and 25.6; APOPTOSIS [8]: 10 and 17.5 and 12.5; G0/G1 [8]: 54.6 and 65.0 and 55.8; G2/M [8]: 14.4 and 11.0 and 17.3; S [8]: 31.0 and 24.0 and 26.9
9 | c1ccc2c(C(c3c[nH]c4ccccc34)C3CCCCC3)c[nH]c2c1 [ST 1487, 1,1-di-(indol-3-yl)-cyclohexylmethane] | 15.3 ± 1 | 27.8 ± 2.1 | 24.9 ± 0.1 | 29.9 ± 0.006 |  |  |  |  |  | IC50 [2]: 16 ± 3.5 µM; IC50 [6]: 38.7 ± 0.03 µM
10 | CCCC(c1c[nH]c2ccc(NC(C)=O)cc12)c1c[nH]c2ccc(NC(C)=O)cc12 [ST 1477, 1,1-di-(5-acetamido-indol-3-yl)-butane] |  |  |  |  |  |  |  | 59.4 ± 6.9 | 33.1 ± 2.9 | IC50 ([6]; Homo sapiens, MES-SA): 28.7 ± 0.2 µM
11 | OC[C@@H](O)[C@@H](O)[C@H](O)[C@@H](O)C(c1c[nH]c2ccccc12)c1c[nH]c2ccccc12 [ST 1350, 1,1-di-indol-3-yl-1-deoxy-D-glucose] | 70.8 ± 3.7 | > 500 |  |  |  |  |  |  |  | IC50 [2]: 81.4 ± 8 µM
12 | CCCc1c(C(=O)c2cn(Cc3ccccc3)c3ccccc23)c2ccccc2n1Cc1ccccc1 [ST 1494, (N-benzyl-indol-3-yl, N-benzyl-2-propyl indol-3-yl)-oxomethane] | > 200 | > 200 |  |  |  |  |  |  |  | IC50 [2]: > 200 µM
13 | CC(=O)OC[C@@H](OC(C)=O)[C@@H](OC(C)=O)[C@H](OC(C)=O)[C@@H](OC(C)=O)C(c1c[nH]c2ccccc12)c1c[nH]c2ccccc12 [ST 1363, 1,1-di-indol-3-yl-1-deoxy-pentaacetyl-D-glucose] | 65.4 ± 0.7 | 121 ± 12 | 31.3 ± 1.6 | 25 ± 2.8 |  |  |  |  |  | IC50 [6]: 33.6 ± 5.9 µM
14 | CC1(C)O[C@@H]([C@H](O)[C@H]2COC(C)(C)O2)[C@@H](C(c2c[nH]c3ncccc23)c2c[nH]c3ncccc23)O1 [ST 1353, 2,3-5,6-di-O-isopropylidene-1,1-di-7-azaindol-3-yl-1-deoxy-D-mannitol] | > 500 | 367 ± 82 |  |  |  |  |  |  |  | 
15 | FCCCC[C@@H](c1cc2ccccc2[nH]1)c1c[nH]c2ccccc12 (racemic) [ST 1421, (R,S)-5-fluoro-1,1-(indol-2-ylindol-3-yl)-pentane] |  |  | 20.7 ± 0.7 | 20.4 ± 2.8 |  |  |  |  |  | 
16 | OC(c1ccccc1)(c1nccn1Cc1ccccc1)c1nccn1Cc1ccccc1 [ST 1440, phenyl, hydroxy, di-(N,N-dibenzyl-imidazol-2-yl) methane] | 29.7 ± 2.6 | 4.6 ± 0.6 | 11.7 ± 0.2 | 17 ± 2.9 |  |  |  |  |  | IC50 [2]: 14.9 ± 2.5 µM; IC50 [6]: 4.7 ± 0.4 µM
17 | CC(=O)OCCCCC(c1c[nH]c2ccccc12)c1c[nH]c2ccccc12 [ST 1371, 5-acetoxy-1,1-diindol-3-yl-pentane] |  |  |  |  | 53 ± 0.4 | 47.9 ± 4.7 | 74.1 ± 2.5 | 33 ± 3 | 27.7 ± 4.2 | 
18 | CCCC(c1c[nH]c2ccc(F)cc12)c1c[nH]c2ccc(F)cc12 [ST 1438, 1,1-di-(5-fluoroindol-3-yl)-butane] |  |  |  |  | 35.6 ± 1.7 | 25.9 ± 3.1 | 41.8 ± 5.3 | 20 ± 0.8 | 28.1 ± 0.9 | IC50 ([6]; Homo sapiens, MES-SA): 21.8 ± 4.4 µM
19 | CCCC(c1c[nH]c2ccccc12)c1c[nH]c2ccccc12 [ST 1385, 1,1-di-indol-3-yl-butane] |  |  |  |  | 33.6 ± 2.9 | 17.6 ± 0.9 | 34.6 ± 2 | 26.4 ± 0.4 | 27 ± 3.2 | IC50 ([6]; Homo sapiens, MES-SA): 19.5 ± 4 µM
20 | CC1(C)OCC(C(O)C2OC(C)(C)OC2C(c2c[nH]c3ccccc23)c2c[nH]c3ccccc23)O1 [ST 1339, 2,3-5,6-di-O-isopropylidene-1,1-di-indol-3-yl-1-deoxy-D-mannitol] | 98.2 ± 12 | 11 ± 0.6 |  |  |  |  |  |  |  | IC50 [2]: 56.1 ± 11 µM
21 | CCCC(c1c[nH]c2cc3c(cc12)OCO3)c1c[nH]c2cc3c(cc12)OCO3 [ST 1478, 1,1-di-(5,6-methylenedioxy-indol-3-yl)-butane] |  |  |  |  | 7.8 ± 1.5 | 10.7 ± 0.6 | 15.2 ± 1.9 | 15.4 ± 1.8 | 11.8 ± 0.4 | IC50 ([6]; Homo sapiens, MES-SA): 17 ± 2 µM
22 | CCCC(c1cc2ccccc2[nH]1)c1c[nH]c2ccccc12 (racemic) [ST 1625, (R,S)-1,1-(indol-2-yl, indol-3-yl) butane] |  |  | 17.1 ± 3.8 | 13.4 ± 1 |  |  |  |  |  | IC50 [6]: 14.1 ± 3.8 µM
23 | CS(=O)(=O)OCCCCC(c1c[nH]c2ccccc12)c1c[nH]c2ccccc12 [ST 1488, 1,1-di-(indol-3-yl)-5-mesyloxy-pentane] |  |  |  |  | 10.3 ± 1.9 | 18.1 ± 0.6 | 9.7 ± 1.3 | 11 ± 1.6 | 13.4 ± 2.2 | IC50 ([6]; Homo sapiens, MES-SA): 15.8 ± 1.8 µM
24 | OCCCC(c1c[nH]c2cc3c(cc12)OCO3)c1c[nH]c2cc3c(cc12)OCO3 [ST 1730, 4-hydroxy-1,1-di-(5,6-methylenedioxy-indol-3-yl)-butane] |  |  |  |  |  |  |  | 9.3 ± 0.9 | 24.5 ± 3.7 | 
25 | CCOC(=O)c1ccc(C(c2ccccc2)c2ccc(C(=O)OCC)[nH]2)[nH]1 [ST 1431, di-(5-ethoxycarbonyl-pyrrol-2-yl)-phenyl-methane] |  |  |  |  |  |  |  | 35.6 ± 0.5 | 20.3 ± 1.4 | 
